Molecular target: T1, ecdysteroid receptor complex in Plodia interpunctella (IAL-PID2) nuclear extract (Plodia interpunctella, UniProt Q6RVD3)
T1 sequence (Q6RVD3 1-541): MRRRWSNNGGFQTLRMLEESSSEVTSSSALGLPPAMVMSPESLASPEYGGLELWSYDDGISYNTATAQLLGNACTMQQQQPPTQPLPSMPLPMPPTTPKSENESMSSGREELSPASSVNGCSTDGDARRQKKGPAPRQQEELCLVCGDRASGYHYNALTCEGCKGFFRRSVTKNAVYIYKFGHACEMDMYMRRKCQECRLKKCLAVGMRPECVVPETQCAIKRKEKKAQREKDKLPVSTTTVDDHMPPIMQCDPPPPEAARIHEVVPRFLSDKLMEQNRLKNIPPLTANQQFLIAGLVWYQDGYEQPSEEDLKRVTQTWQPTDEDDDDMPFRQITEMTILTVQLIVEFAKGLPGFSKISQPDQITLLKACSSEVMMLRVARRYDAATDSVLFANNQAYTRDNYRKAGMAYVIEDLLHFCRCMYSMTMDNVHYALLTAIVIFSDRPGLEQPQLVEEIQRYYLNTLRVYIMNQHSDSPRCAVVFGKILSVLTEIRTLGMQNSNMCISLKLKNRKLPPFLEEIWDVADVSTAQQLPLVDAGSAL
T1 sequence (Q6IVK1 1-415 partner): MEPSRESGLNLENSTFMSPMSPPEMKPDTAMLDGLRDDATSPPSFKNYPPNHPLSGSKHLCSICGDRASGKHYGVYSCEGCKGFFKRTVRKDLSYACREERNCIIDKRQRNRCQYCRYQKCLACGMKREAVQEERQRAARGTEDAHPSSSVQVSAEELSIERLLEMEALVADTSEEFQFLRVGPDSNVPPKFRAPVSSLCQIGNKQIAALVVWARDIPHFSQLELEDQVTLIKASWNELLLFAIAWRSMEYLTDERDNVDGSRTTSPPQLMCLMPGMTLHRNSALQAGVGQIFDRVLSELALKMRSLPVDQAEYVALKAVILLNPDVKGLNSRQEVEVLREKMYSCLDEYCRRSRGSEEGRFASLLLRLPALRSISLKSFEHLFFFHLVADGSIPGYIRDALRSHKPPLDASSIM
Experiment: Competitive 3H-ponasterone A binding assay, Plodia nuclear ecdysone receptor extract
Settings: 3H-ponasterone A displacement
Method: The cell line IAL-PID2, derived from imaginal wing discs of the lepidopteran Plodia interpunctella was obtained from H. Oberlander and maintained as described (Lynn, E. E. and Oberlander, H., (1983), J. Insect Physiology, 29, 591-96). A 300 ml stationary phase culture of P. interpunctella cells was centrifuged at 700×g for 10 mm at room temperature to pellet the cells. The supernatant was aspirated and the cellular pellet resuspended in 35 ml TMT (TM buffer with 0.1% Triton X-100). The suspension was homogenized with twenty up and down strokes of a Dounce homogenizer on ice. Homogenate was incubated on ice for 10 minutes and then centrifuged for 15 min at 900×g. The pellet was resuspenced in 15 ml TM buffer and centrifuged at 2,300×g. This pellet was extracted in TMK buffer (TM buffer with 800 mM KCl) by using a glass rod to crush the pellet until a gelatinous slurry was formed and incubated on ice for 15 minutes. The extract was centrifuged at 100,000×g in a swinging bucket rotor for 60 minutes. The supernatant, which constituted the nuclear extract, was desalted on a 10 DG desalting column (Bio-Rad, 732-2010) equilibrated with T-buffer. The total protein concentration in the nuclear extract was adjusted to 5 mg per ml with T-buffer containing 1 mM DTT.
^3H ponasterone A, a potent phytoecdysteroid, (66,000 dpm; specific activity 170 Ci/mmole; NEN Life Science Products, Boston, Mass.) was mixed with 100 μl Kc cytosolic or Plodia nuclear ecdysone receptor extracts in […] glass test tubes in the absence or presence of 10 μM unlabelled 20-hydroxyecdysone (20E) to obtain an estimate of total or non-specific respectively, binding of tritiated ponasterone A. The tubes were vortexed and incubated overnight at 4° C. for Kc cytosolic extracts or 1.5 hours for Plodia nuclear extracts for binding reactions to reach equilibrium. At the end of equilibrium binding times, the bound tritiated ponasterone A was separated from the unbound by addition of ice-cold 600 μl or 300 μl dextran-coated charcoal solution (500 mg of Sigma HCL-washed activated charcoal, 50 mg Pharmacia Dextran T70, 50 ml T-buffer) to Kc or Plodia extracts, respectively. The tubes were vortexed briefly and centrifuged at 7,000×g to pellet the charcoal. The supernatant, 600 μl or 300 μl for Kc or Plodia extract reactions, respectively, containing tritiated ponasterone A bound to proteins, was aspirated into liquid scintillation vials containing 5 ml scintillation cocktail (ReadySafe®, Beckmann) each The mixture was vortexed and the amount of total or non-specifically bound radioactivity measured in a Beckmann LS500 liquid scinitllation counter with a 60% counting efficiency for tritium.
The concentrations of competitors that inhibited 50% of tritiated ponasterone A binding (IC50) was determined by incubating Kc or Plodia nuclear extracts or extracts of bacteria producing CfEcR(CDEF)-GST and CfUSP-GST fusions proteins with ^3H-ponasterone A (66,000 dpm per reaction) in the presence of a range of concentrations (0.1 nM to 10 μM) of test compounds. In the case of binding reactions using bacterial fusion proteins, 20 or one μl extract of bacteria producing CfEcR(CDEF)-GST or CfUSP-GST fusion proteins, respectively, were included per binding reaction. The assay conditions and determination of total and non-specific binding was as described above. The volume of competitor in solvent, like that for 20E or solvent alone, was kept at 1% of total reaction volume by using a 100 fold concentrated stock solution (i.e. a 100 fold dilution of stock solutions). The remainder of the assay was as described above. Each reaction was carried out in duplicate per concentration per test compound. Specific binding of ^3H-ponasterone A was determined by subtracting non-specific binding (that obtained in the presence of 10 μM 20E) from total (no competitor) or competed radioactivity bound. […]

SMILES | Plodia log(1/IC50)
COc1cccc(C(=O)NN(C(=O)c2cc(C)cc(C)c2)C(C)(C)C)c1C [Ligand 3] | 9.04
CCc1c(OC)cccc1C(=O)NN(C(=O)c1cc(F)cc(F)c1)C(C)(C)C [Ligand 4] | 8.51
Cc1cc(C)cc(C(=O)N(NC(=O)c2ccc3c(c2C)OCCO3)C(C)(C)C)c1 [Ligand 2] | 9.14
CCOc1cccc(C(=O)NN(C(=O)c2cc(C)cc(C)c2)C(C)(C)C)c1CC [Ligand 12] | 9.63
CCc1c(OC)cccc1C(=O)NN(C(=O)c1cccc(OC)c1)C(C)(C)C [Ligand 1] | 8.52
CCc1c(OC)cccc1C(=O)NN(C(=O)c1cc(C)cc(C)c1)C(C)(C)C [Ligand 5] | 9.49
CCc1c(OC)cccc1C(=O)NN(C(=O)c1cc(Cl)cc(Cl)c1)C(C)(C)C [Ligand 13] | 9.06

Reference: patent US20010044151A1, “Ligands for modulating the expression of exogenous genes via an ecdysone receptor complex” (priority 1998, published 2001)
